Experimental data as given in patent US20210009557A1, “ACYCLIC CXCR4 INHIBITORS AND USES THEREOF” (X4 Pharmaceuticals, Inc., priority 2017, published 2021).
pIC50: −log10 of the molar value.

Key:
[1] = molecular target: T1, Jurkat cells expressing CXCR4 (Homo sapiens, UniProt P61073); experiment: Chemokine (CXCL12-AF647) binding inhibition assay; conditions: CXCL12-AF647 25 ng/mL, read-out: IC50 CXCL-12 binding Jurkat
T1 construct: Jurkat cells expressing CXCR4; endogenous in cells; host or cells: Jurkat cells
Description: Jurkat cells expressing CXCR4 were washed once with assay buffer (Hanks' balanced salt solution with 20 mM HEPES buffer and 0.2% bovine serum albumin, pH 7.4) and then incubated for 15 min at room temperature with the test compounds diluted in assay buffer at dose-dependent concentrations. Subsequently, CXCL12-AF647 (25 ng/mL) was added to the compound-incubated cells. The cells were incubated for 30 min at room temperature. Thereafter, the cells were washed twice in assay buffer, fixed in 1% paraformaldehyde in PBS, and analyzed on the FL4 channel of a FACSCalibur flow cytometer equipped with a 635-nm red diode laser (Becton Dickinson, San Jose, Calif., USA).
The percentages of inhibition of CXCL12-AF647 binding were calculated according to the formula: [1−((MFI−MFINC)/(MFIPC−MFINC))]×100 where MFI is the mean fluorescence intensity of the cells incubated with CXCL12-AF647 in the presence of the inhibitor, MFINC is the mean fluorescence intensity measured in the negative control (i.e., autofluorescence of unlabeled cells), and MFIPC is the mean fluorescence intensity of the positive control (i.e., cells exposed to CXCL12-AF647 alone).

in vitro = conditions: human, Caco-2, pH 7.4
Description: The goal of this assay was to evaluate the intestinal absorption potential of drug candidates using Caco-2 cell lines.
Experimental Procedure • 1. Pre-warm Pre-warm HBSS Buffer in 37° C. water bath • 2. Sonicate Take compounds from −20° C., sonicate for a few minutes (no less than 1 minute) • 3. Solution preparation
For A-to-B Direction: • HBSS buffer with 0.3% DMSO and 5 μM LY: add 150 μL DMSO and 50 μL LY (5 mM) into 50 ml HBSS buffer (pH 7.4). • HBSS buffer with 0.1% DMSO and 5 μM LY: add 50 μL DMSO and 50 μL LY (5 mM) into 50 mL HBSS buffer (pH 7.4).
For B-to-A Direction: • HBSS buffer with 0.3% DMSO: add 150 μL DMSO into 50 ml HBSS buffer (pH 7.4). HBSS buffer with 0.1% DMSO: add 50 μL DMSO into 50 ml HBSS buffer (pH 7.4).
For A-to-B Direction: • Prepare HBSS buffer with 0.4% DMSO: add 200 μL DMSO into 50 ml HBSS buffer (pH 7.4).
For B-to-A Direction: • Prepare HBSS buffer with 0.4% DMSO and 5 μM LY: add 200 μL DMSO and 50 μL LY (5 mM) into 50 ml HBSS buffer (pH 7.4).
• 4. Measure TEER Take cell culture plate out of incubator, wash the cell monolayers with HBSS buffer, and then measure TEER values at Rm temperature. • 5. Centrifuge Centrifuge the compound solution (from step 3) at 4000 rpm for 5 min before loading to donor chambers. • 6. Dosing Add solution based on the volumes listed in the following table (make sure to take extra 100 μL of donor sample for T0 as Backup).
• 7. Apical LYTO samples To determine LY concentration in the apical chamber, take 100 μL sample from apical chambers into an opaque plate for LYTO. • 8. Pre-warm Pre-warm apical and basolateral plates at 37° C. for about 5 min, then begin transport by placing the apical plate onto basolateral plate. • 9. Incubation Keep the plates in incubator at 37° C. for 90 min. • 10.
• Prepare 1× solution: • 3 μL (20×)+57 μL of 0.4% DMSO HBSS+60 μL ACN with IS (Osalmid or Imipramine)—120 μL (1×) • 11. Transport termination Separate the apical plate from the basolateral plate after 90-min incubation. • 12. Measure LY Take 100 μL samples from basolateral plate to an opaque plate as LYT90. • 13. Measure LY concentrations for LYTO and LYT90 by Fluorometer (at excitation of 485 nm/emission of 535 nm). • 14.
Drug permeability: Papp=(VA/(Area×time))×([drug]accepter/(([drug]initial, donor)×Dilution Factor) • Where VA is the volume in the acceptor well, area is the surface area of the membrane and time is the total transport time in seconds.
For Millicell-24 Cell Culture Plates: surface area of the membrane=0.7 cm^2, VA=0.8 mL (A-to-B) or 0.4 mL (B-to-A)

[2] = molecular target: T2, CXCR-4 transfected U87 cell line (U87.CXCR4) (Homo sapiens, UniProt P61073); experiment: Intracellular CXCL-12-induced calcium mobilization assay (FLIPR); type: cell-based; conditions: U87.CXCR4 cells; CXCL-12 25-50 ng/mL; compounds added 15 minutes before; read-out: IC50 CXCL-12 Ca2+ flux U87.CXCR4+
T2 construct: expressed in transfected cells; host or cells: U87 cell line (U87.CXCR4)
Description: Intracellular calcium mobilization induced by chemokines orchemokine-derived peptides were evaluated using a calcium responsive fluorescent probe and a FLIPR system. The CXCR-4 transfected U87 cell line (U87.CXCR4) cells were seeded in gelatine-coated black-wall 96-well plates at 20,000 cells per well and incubated for 12 hours. Cells were then loaded with the fluorescent calcium probe Fluo-2 acetoxymethyl at 4 μM final concentration in assay buffer (Hanks' balanced salt solution with 20 mM HEPES buffer and 0.2% bovine serum albumin, pH 7.4) for 45 min at 37′C. The intracellular calcium mobilization induced by the CXCL-12 (25-50 ng/mL) was then measured at 37° C. by monitoring the fluorescence as a function of time in all the wells simultaneously using a fluorometric imaging plate reader (FLIPR Tetra, Molecular Devices).

T2 sequence (P61073 whole entry): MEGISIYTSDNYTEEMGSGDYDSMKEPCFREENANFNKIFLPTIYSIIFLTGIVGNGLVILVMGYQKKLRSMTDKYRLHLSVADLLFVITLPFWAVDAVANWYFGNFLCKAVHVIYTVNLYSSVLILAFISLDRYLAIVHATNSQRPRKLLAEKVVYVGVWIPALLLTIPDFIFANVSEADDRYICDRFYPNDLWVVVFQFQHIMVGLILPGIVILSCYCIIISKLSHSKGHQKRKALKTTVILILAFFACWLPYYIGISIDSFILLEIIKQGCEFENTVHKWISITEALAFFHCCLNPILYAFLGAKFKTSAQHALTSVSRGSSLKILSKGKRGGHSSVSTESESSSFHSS
T1 sequence (P61073 whole entry): as above

Cc1cccnc1CN(CCc1c[nH]cn1)Cc1nc2cccc(F)c2n1C [Compound I-40]
pIC50 [1]: 7.00 to 11.00
Papp A→B at 90 min, 10 μM (in vitro): < 5 ×10⁻⁶ cm/s
Papp B→A at 90 min, 10 μM (in vitro): > 10 ×10⁻⁶ cm/s
efflux ratio at 90 min, 10 μM (in vitro): 10 to 30
pIC50 [2]: ≤ 6.00

Cc1cccnc1CN(CCc1c[nH]cn1)Cc1nc2ccc(F)cc2n1C [Compound I-41]
pIC50 [1]: 7.00 to 11.00
Papp A→B at 90 min, 10 μM (in vitro): < 5 ×10⁻⁶ cm/s
Papp B→A at 90 min, 10 μM (in vitro): > 10 ×10⁻⁶ cm/s
efflux ratio at 90 min, 10 μM (in vitro): > 30
pIC50 [2]: 6.00 to 7.00

Cc1cccnc1CN(CCc1c[nH]cn1)Cc1nc2cc(F)ccc2n1C [Compound I-42]
pIC50 [1]: 7.00 to 11.00
Papp A→B at 90 min, 10 μM (in vitro): < 5 ×10⁻⁶ cm/s
Papp B→A at 90 min, 10 μM (in vitro): > 10 ×10⁻⁶ cm/s
efflux ratio at 90 min, 10 μM (in vitro): > 30
pIC50 [2]: ≤ 6.00

Cc1cccnc1CN(CCc1c[nH]cn1)Cc1nc2c(F)cccc2n1C [Compound I-43, N-((4-fluoro-1-methyl-1H-benzo[d]imidazol-2-yl)methyl)-2-(1H-imidazol-4-yl)-N-((3-methylpyridin-2-yl)methyl)ethan-1-amine]
pIC50 [1]: 7.00 to 11.00
Papp A→B at 90 min, 10 μM (in vitro): 5 to 10 ×10⁻⁶ cm/s
Papp B→A at 90 min, 10 μM (in vitro): > 10 ×10⁻⁶ cm/s
efflux ratio at 90 min, 10 μM (in vitro): 0.1 to 10
pIC50 [2]: 7.00 to 11.00

Cn1c(CN(CCc2c[nH]cn2)[C@H]2CCCc3cccnc32)nc2cccc(F)c21 [Compound I-44]
pIC50 [1]: 7.00 to 11.00
Papp A→B at 90 min, 10 μM (in vitro): 5 to 10 ×10⁻⁶ cm/s
Papp B→A at 90 min, 10 μM (in vitro): > 10 ×10⁻⁶ cm/s
efflux ratio at 90 min, 10 μM (in vitro): 0.1 to 10
pIC50 [2]: 7.00 to 11.00

Cn1c(CN(CCc2c[nH]cn2)[C@H]2CCCc3cccnc32)nc2cc(F)ccc21 [Compound I-45]
pIC50 [1]: 7.00 to 11.00
Papp A→B at 90 min, 10 μM (in vitro): < 5 ×10⁻⁶ cm/s
Papp B→A at 90 min, 10 μM (in vitro): > 10 ×10⁻⁶ cm/s
efflux ratio at 90 min, 10 μM (in vitro): 0.1 to 10
pIC50 [2]: ≤ 6.00

Cc1cccnc1CN(CCC(N)=O)Cc1ncccc1-c1ccccc1 [Compound I-46]
pIC50 [1]: 7.00 to 11.00
Papp A→B at 90 min, 10 μM (in vitro): > 10 ×10⁻⁶ cm/s
Papp B→A at 90 min, 10 μM (in vitro): > 10 ×10⁻⁶ cm/s
efflux ratio at 90 min, 10 μM (in vitro): 0.1 to 10
pIC50 [2]: ≤ 6.00

CC(C)c1cccnc1CN(CCC(N)=O)Cc1ncccc1-c1ccccc1 [Compound I-47]
pIC50 [1]: 6.00 to 7.00
Papp A→B at 90 min, 10 μM (in vitro): > 10 ×10⁻⁶ cm/s
Papp B→A at 90 min, 10 μM (in vitro): > 10 ×10⁻⁶ cm/s
efflux ratio at 90 min, 10 μM (in vitro): 0.1 to 10
pIC50 [2]: ≤ 6.00

CC(C)c1cccnc1CN(CCC(N)=O)[C@H]1CCCc2cccnc21 [Compound I-48]
pIC50 [1]: 7.00 to 11.00
Papp A→B at 90 min, 10 μM (in vitro): < 5 ×10⁻⁶ cm/s
Papp B→A at 90 min, 10 μM (in vitro): > 10 ×10⁻⁶ cm/s
efflux ratio at 90 min, 10 μM (in vitro): 0.1 to 10
pIC50 [2]: ≤ 6.00

NC(=O)CCN(Cc1nccc2ccccc12)[C@H]1CCCc2cccnc21 [Compound I-49]
pIC50 [1]: 7.00 to 11.00
Papp A→B at 90 min, 10 μM (in vitro): 5 to 10 ×10⁻⁶ cm/s
Papp B→A at 90 min, 10 μM (in vitro): > 10 ×10⁻⁶ cm/s
efflux ratio at 90 min, 10 μM (in vitro): 0.1 to 10
pIC50 [2]: 6.00 to 7.00

NC(=O)CCN(Cc1nccs1)[C@H]1CCCc2cccnc21 [Compound I-50]
pIC50 [1]: ≤ 6.00
Papp A→B at 90 min, 10 μM (in vitro): > 10 ×10⁻⁶ cm/s
Papp B→A at 90 min, 10 μM (in vitro): > 10 ×10⁻⁶ cm/s
efflux ratio at 90 min, 10 μM (in vitro): 0.1 to 10
pIC50 [2]: ≤ 6.00

NC(=O)CCN(Cc1ncccc1-c1ccccc1)[C@H]1CCCc2cccnc21 [Compound I-51]
pIC50 [1]: 7.00 to 11.00
Papp A→B at 90 min, 10 μM (in vitro): 5 to 10 ×10⁻⁶ cm/s
Papp B→A at 90 min, 10 μM (in vitro): > 10 ×10⁻⁶ cm/s
efflux ratio at 90 min, 10 μM (in vitro): 0.1 to 10
pIC50 [2]: ≤ 6.00

Cc1cccnc1CN(CCc1c[nH]cn1)Cc1nccs1 [Compound I-52]
pIC50 [1]: 6.00 to 7.00
Papp A→B at 90 min, 10 μM (in vitro): 5 to 10 ×10⁻⁶ cm/s
Papp B→A at 90 min, 10 μM (in vitro): > 10 ×10⁻⁶ cm/s
efflux ratio at 90 min, 10 μM (in vitro): 0.1 to 10
pIC50 [2]: ≤ 6.00

Clc1cccnc1CN(CCc1cnc[nH]1)Cc1nccs1 [Compound I-53]
pIC50 [1]: 6.00 to 7.00
Papp A→B at 90 min, 10 μM (in vitro): > 10 ×10⁻⁶ cm/s
Papp B→A at 90 min, 10 μM (in vitro): > 10 ×10⁻⁶ cm/s
efflux ratio at 90 min, 10 μM (in vitro): 0.1 to 10
pIC50 [2]: ≤ 6.00

c1ccc2c(CN(CCc3c[nH]cn3)Cc3nccs3)nccc2c1 [Compound I-54]
pIC50 [1]: 6.00 to 7.00
Papp A→B at 90 min, 10 μM (in vitro): 5 to 10 ×10⁻⁶ cm/s
Papp B→A at 90 min, 10 μM (in vitro): > 10 ×10⁻⁶ cm/s
efflux ratio at 90 min, 10 μM (in vitro): 0.1 to 10
pIC50 [2]: ≤ 6.00

OCCN(Cc1nc2ccccc2[nH]1)[C@H]1CCCc2cccnc21 [Compound I-55]
pIC50 [1]: 6.00 to 7.00
Papp A→B at 90 min, 10 μM (in vitro): > 10 ×10⁻⁶ cm/s
Papp B→A at 90 min, 10 μM (in vitro): > 10 ×10⁻⁶ cm/s
efflux ratio at 90 min, 10 μM (in vitro): 0.1 to 10
pIC50 [2]: ≤ 6.00

COc1cccnc1CCN(Cc1ncccc1C)Cc1ncccc1C [Compound I-56]
pIC50 [1]: 7.00 to 11.00
Papp A→B at 90 min, 10 μM (in vitro): 5 to 10 ×10⁻⁶ cm/s
Papp B→A at 90 min, 10 μM (in vitro): > 10 ×10⁻⁶ cm/s
efflux ratio at 90 min, 10 μM (in vitro): 0.1 to 10
pIC50 [2]: ≤ 6.00

Cc1cccnc1CN(CCc1cnc[nH]1)Cc1ncccc1-c1ccccc1 [Compound I-57]
pIC50 [1]: 7.00 to 11.00
Papp A→B at 90 min, 10 μM (in vitro): < 5 ×10⁻⁶ cm/s
Papp B→A at 90 min, 10 μM (in vitro): > 10 ×10⁻⁶ cm/s
efflux ratio at 90 min, 10 μM (in vitro): 0.1 to 10
pIC50 [2]: 6.00 to 7.00

Cc1cccnc1CN(CCn1ccccc1=O)Cc1ncccc1C [Compound I-58]
pIC50 [1]: 6.00 to 7.00
Papp A→B at 90 min, 10 μM (in vitro): > 10 ×10⁻⁶ cm/s
Papp B→A at 90 min, 10 μM (in vitro): > 10 ×10⁻⁶ cm/s
efflux ratio at 90 min, 10 μM (in vitro): 0.1 to 10
pIC50 [2]: ≤ 6.00

Cc1cccnc1CN(CCc1cccc(O)n1)Cc1ncccc1C [Compound I-59]
pIC50 [1]: 6.00 to 7.00
Papp A→B at 90 min, 10 μM (in vitro): > 10 ×10⁻⁶ cm/s
Papp B→A at 90 min, 10 μM (in vitro): > 10 ×10⁻⁶ cm/s
efflux ratio at 90 min, 10 μM (in vitro): 0.1 to 10
pIC50 [2]: ≤ 6.00
